From US20190086390A1, “INDIRECT ASSESSMENT OF INSULIN RELEASE IN A CELL” (Board of Supervisors of Louisiana State University and …, priority 2016, published 2019)
Entries after “also recorded” stand apart in the source; their conditions may differ.

Assays:
832/13 cells [1] = test: Nitric oxide by EPR spectroscopy with (MGD)2Fe2+ spin trap; type: cell-based, rat; settings: 1 ng/ml IL-1β 18 h
Procedure: The spin trap Af-methyl-d-glucamine dithiocarbamate-iron complex [(MGD)2-Fe^2+] was prepared fresh in each experiment by making stock solutions of 500 mM MGD and 100 mM Fe^2+ (from FeS04.7 H20) in ultrapure water under anaerobic conditions. A final concentration of 25 mM MGD and 5 mM Fe^2+ was introduced onto cells in culture using serum-free media with a 30-min incubation period. Supernatants were then collected for the measurements of the (MGD)2-iron-NO complex. All electron paramagnetic resonance (EPR) measurements were carried out in a quartz flat cell at room temperature. Samples were transferred directly into the flat cell, which was then placed into the cavity of a Bruker EMX Plus spectroscope. Typical instrumental conditions were as follows: 20 mW of microwave power, 5.0-G modulation amplitude, 1×10^5 gain, 0.163-s time constant, and 80-G scan range. Quantitation was carried out by measuring and comparing the first peak heights on the spectra.

CCL2 = CCL2 secretion into media of 832/13 cells, ELISA; type: cell-based, rat; settings: 1 ng/ml IL-1β + 1 mM I-NMMA, 6 h
Procedure: (§1) 832/13 cells were grown in 12-well plates and treated as indicated. RPMI was supplemented with 0.3% BSA, and media were collected at the indicated time points. In addition, the cells were lysed using M-PER lysis reagent (Thermo Fisher Scientific) to quantify total intracellular protein content. CCL2 and CCL20 secretion into the media was measured by CCL2 Quantikine ELISA kit (R & D Systems, Minneapolis, Minn.) and CCL20 DuoSet ELISA kit (R & D Systems) according to the manufacturer's protocol. ELISA data were normalized to total protein to account for any differences in cell number between treatment groups.

832/13 cells [2] = test: Oxygen consumption rate (Seahorse XF24); type: cell-based, rat; settings: 1 ng/ml IL-1β + 1 mM I-NMMA, 18 h
Procedure: Oxygen consumption rates (OCR) were measured using the XF^24 Extracellular Flux Analyzer (Seahorse Bioscience, Chicopee, Mass.). 832/13 cells were grown on cell culture plates for 2 days prior to OCR assays being run. Cells were treated with vehicle, 1 ng/ml IL-β, 1 mM I-NMMA, or both IL-1β (1 ng/ml) plus I-NMMA (1 mM) for 18 h prior to OCR being measured. The oxygen consumption rate was measured over a 2-h period. Data represent the calculated average area under the curve from six wells per treatment group over multiple independent experiments.

832/13 cells [3] = test: Glucose-stimulated insulin secretion (GSIS) in 832/13 cells, insulin ELISA; type: cell-based, rat
Procedure: 832/13 cells were grown in 12-well plates and treated as indicated. Glucose-stimulated insulin secretion (GSIS) assays were performed as described previously (29). Insulin secretion by cell lines into the media was measured using either the High Range Rat Insulin ELISA kit (Mercodia, Uppsala, Sweden) or by rat islets using the insulin radioimmunoassay (Siemens, Malvern, Pa.) according to the company directions. In addition, cells were lysed using M-PER lysis reagent (Thermo Fisher Scientific) to quantify total intracellular protein content via BCA assay (Thermo Fisher Scientific). Insulin secretion data were normalized to total protein to account for any differences in cell number between treatment groups. Incorporation of tritiated thymidine into DNA as a cellular index of proliferation was carried out as described (45).

CCL20 = CCL20 secretion into media of 832/13 cells, ELISA; type: cell-based, rat; settings: 1 ng/ml IL-1β + 1 mM I-NMMA, 6 h
Procedure: as §1

832/13 cells [4] = test: MTS dye reduction assay; type: cell-based, rat; settings: 1 ng/ml IL-1β + 1 mM I-NMMA, 18 h
Procedure: (§2) Nitrite in the cell culture media was measured as an index of NO production using the Griess assay kit (Promega, Madison, Wis.), whereas cellular reduction of the 3-(4,5-dimethylthiazol-2-yl)-5-(3-carboxymethoxyphenyl)-2-(4-sulfophe-nyl)-2H-tetrazohum, inner salt (MTS) dye was determined using the MTS 1 solution kit (Promega) according to the manufacturer's protocol.

832/13 cells [5] = test: Nitrite accumulation in culture media, Griess assay; type: cell-based, rat; settings: 832/13 cells, 1 ng/ml IL-1β 18 h
Procedure: as §2

832/13 cells [6] = test: Live cell calcium imaging, glucose-induced calcium response (Calcium Green); type: cell-based, rat
Procedure: 832/13 cells were plated into six-well plates containing poly-d-lysine-coated coverslips (Neuvitro, Vancouver, Wash.). At 50% confluence, cells were treated for 18 h with one of four experimental groups: 1 ng/ml […] alone, 1 mM I-NMMA alone, IL-1β+ I-NMMA, or normal growth media. Immediately prior to imaging, cells were preloaded with Calcium Green 1 AM (CG, C3012; Life Technologies) by transferring coverslips to a solution of 10|×M CG in 20% Pluronic F127 in DMSO (Life Technologies) made up in carbogenated (95% 02-5% C02) normal Krebs. The recipe for normal Krebs solution was (in mM) 124 NaCl, 25 NaHC03, 2 glucose, 3 KC1, 2 CaCl2, 1.5 NaH2P04, and 1 MgS04-7H20, which corrected to pH 7.4 with HCl. After incubation in the CG solution for 30 min, coverslips were transferred to carbogenated normal Krebs at 29° C.
Coverslips were transferred to a recording chamber on a fixed stage Zeiss Axioskop2 microscope equipped with a Perkin Elmer Ultra-view/Yokogawa C10 spinning disk laser confocal illuminator. Cells were illuminated with the 488 nm laser; CG-calcium fluorescence signals were collected at 509 nm. Cells were visualized with a X40 water immersion objective. Images were collected with a Hammamatsu Ocra-ER charge-coupled device camera. The confocal system, including image collection, was controlled by Perkin-Elmer Improvision software.
Cells on coverslips were constantly perfused with normal Krebs solution at 29° C. at a rate of 3 ml/min. After 10 min, the perfusion solution was switched to one containing 12 mM glucose and proportionally less sodium chloride to maintain osmolality. The 12 mM glucose challenge was applied for 5 min, followed by a 5 min washout period. Images of CG-labeled cells were collected continuously during the challenge period at a rate of 20/min, with each frame taking 1 s. Images were collected as TIFF stacks and processed using Nikon Elements AR software. Individual cells in the field were designated as regions of interest (ROI), and their fluorescence signal over time was captured. Background fluorescence was subtracted from the fluorescence signal of individual ROIs. The relative changes in cytoplasmic calcium in the cells were expressed as changes in fluorescence [(AF/F) %], where F is the intensity of the baseline fluorescence signal before stimulation and AF is the difference between the peak fluorescence intensity and the baseline signal. Therefore, magnitude of response was normalized for each individual ROI.

[7] = system: islets isolated from ZDF rats; settings: islets from ZDF rats and clonal cells cultured in lipids; cited from earlier work
[8] = pretreated 18 h with I-NMMA plus IL-1β, 12 mM glucose

| SMILES | IL-1β-induced nitric oxide production in presence of inhibitor (832/13 cells [1]) | IL-1β-induced synthesis and secretion of CCL2 with NOS inhibitor (CCL2) | IL-1β-induced decrease in oxygen consumption rate with NOS inhibitor (832/13 cells [2]) | recovery of insulin secretion (832/13 cells [3]; IL-1β 1 ng/ml + I-NMMA 1 mM, 18 h) | IL-1β-induced CCL20 secretion with NOS inhibitor (CCL20) | IL-1β-induced decrease in MTS reduction with NOS inhibitor (832/13 cells [4]) | IL-1β-induced nitrite production in presence of inhibitor (832/13 cells [5]) | IL-1β-reduced change in intracellular calcium with NOS inhibitor (832/13 cells [6]; 1 mM I-NMMA) | magnitude of the response (832/13 cells [6]; [8]) [%] | number of responsive cells (832/13 cells [6]; [8]) [%] | responders and response magnitude relative to control pretreatment (832/13 cells [6]; pretreated with I-NMMA alone) | insulin secretion [7] | recovery of insulin secretion (832/13 cells [3]; IL-1β 18 h, 10 uM DMM during final 2 h) |
| --- | --- | --- | --- | --- | --- | --- | --- | --- | --- | --- | --- | --- | --- |
| CNC(=N)NCCC[C@H](N)C(=O)O [I-NMMA, N^G-monomethyl-L-arginine, reference compound] | lack of IL-Iβ-mediated elevations in nitric oxide formation | not altered | prevented | almost complete recovery | not impacted | fully recovered | completely inhibited | completely prevented | 30 | 89 | differed neither in the number of responders nor in the magnitude of the responses |  |  |
| COC(=O)CC(O)C(=O)OC (stereo not shown) [dimethyl malate, reference compound] |  |  |  |  |  |  |  |  |  |  |  | improves insulin secretion | could be recovered; also recorded: enhanced insulin secretion |
